“Also recorded” adds a separate entry of the source.
Test system: SLIT2 expression in prostate cancer cell lines
Assay: QRT-PCR analysis of SLIT2 transcript after compound treatment
Assay type: cell-based, human
Settings: normalized to GAPDH housekeeping gene, FIG. 4c-e, DU145 prostate cancer cell lines, 5 uM SAHA time-course in panel d

| SMILES | SLIT2 expression (transcript level) |
| --- | --- |
| Nc1nccc2c1ncn2C1C=C(CO)C(O)C1O (centres unmarked) [DZNep] | Marked up-regulation |
| O=C(CCCCCCC(=O)Nc1ccccc1)NO [SAHA] | restore the expression level of SLIT2; also recorded: up-regulated |

Reference: patent publication US7968294B2, “SLIT2 underexpression in metastatic prostate cancer” (The Regents of the University of Michigan, priority 2008, dated 2011)
